From paper PMC4859410 (Pharmacogenetics and genomics, 2010)

Assays:
Format in all cases: in vitro ADME
OATP1B1 = biological target: T1, OATP1B1 (Homo sapiens, UniProt Q9Y6L6); experiment: Drug uptake in X. laevis oocytes injected with SLCO1B1; conditions: for Drug uptake, OATP1B1: OATP1B1 cRNA injected oocytes; for Drug uptake, OATP1B1 / Drug uptake, Water: 1 µM (darunavir 3 µM), 18°C, 1hr, mean ± SD; for Drug uptake, Water: water injected control oocytes (Table 2); for Accumulation in SLCO1B1 cRNA injected oocytes compared to water injected control oocytes (in words): in the presence and in the absence of 2% HSA; for Ratio (fold increase in OATP1B1 cRNA injected oocytes compared to water injected oocytes): * = P < 0.05
T1 sequence (Q9Y6L6 1-691): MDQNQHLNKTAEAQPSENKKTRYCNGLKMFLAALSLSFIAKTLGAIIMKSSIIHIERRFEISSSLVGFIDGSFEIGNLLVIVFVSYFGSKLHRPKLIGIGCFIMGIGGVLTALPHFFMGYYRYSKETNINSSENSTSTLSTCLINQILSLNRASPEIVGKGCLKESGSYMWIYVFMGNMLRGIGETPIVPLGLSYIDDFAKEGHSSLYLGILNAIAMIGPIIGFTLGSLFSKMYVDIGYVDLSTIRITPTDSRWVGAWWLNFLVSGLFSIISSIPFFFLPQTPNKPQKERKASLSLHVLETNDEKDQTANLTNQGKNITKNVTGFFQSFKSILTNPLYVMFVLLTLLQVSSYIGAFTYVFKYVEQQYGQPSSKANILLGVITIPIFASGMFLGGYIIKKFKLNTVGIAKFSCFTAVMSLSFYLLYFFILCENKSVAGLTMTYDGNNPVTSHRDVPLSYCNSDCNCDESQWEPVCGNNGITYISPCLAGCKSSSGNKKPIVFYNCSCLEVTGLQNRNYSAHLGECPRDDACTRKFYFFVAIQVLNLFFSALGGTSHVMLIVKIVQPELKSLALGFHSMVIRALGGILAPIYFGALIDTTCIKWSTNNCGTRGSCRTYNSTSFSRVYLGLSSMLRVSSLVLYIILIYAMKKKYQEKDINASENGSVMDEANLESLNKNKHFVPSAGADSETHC

OATP1B3 = biological target: T2, OATP1B3 (Homo sapiens, UniProt Q9NPD5); experiment: Drug uptake in X. laevis oocytes injected with SLCO1B3; conditions: without human serum albumin; for Drug uptake, OATP1B3: OATP1B3 cRNA injected oocytes; for Drug uptake, OATP1B3 / Drug uptake, Water: 1 µM (darunavir 3 µM, performed once), 18°C, 1hr, mean ± SD; for Drug uptake, Water: water injected control oocytes (Table 3); for Ratio (fold increase in OATP1B3 cRNA injected oocytes compared to water injected oocytes): * = P < 0.05
T2 sequence (Q9NPD5 1-702): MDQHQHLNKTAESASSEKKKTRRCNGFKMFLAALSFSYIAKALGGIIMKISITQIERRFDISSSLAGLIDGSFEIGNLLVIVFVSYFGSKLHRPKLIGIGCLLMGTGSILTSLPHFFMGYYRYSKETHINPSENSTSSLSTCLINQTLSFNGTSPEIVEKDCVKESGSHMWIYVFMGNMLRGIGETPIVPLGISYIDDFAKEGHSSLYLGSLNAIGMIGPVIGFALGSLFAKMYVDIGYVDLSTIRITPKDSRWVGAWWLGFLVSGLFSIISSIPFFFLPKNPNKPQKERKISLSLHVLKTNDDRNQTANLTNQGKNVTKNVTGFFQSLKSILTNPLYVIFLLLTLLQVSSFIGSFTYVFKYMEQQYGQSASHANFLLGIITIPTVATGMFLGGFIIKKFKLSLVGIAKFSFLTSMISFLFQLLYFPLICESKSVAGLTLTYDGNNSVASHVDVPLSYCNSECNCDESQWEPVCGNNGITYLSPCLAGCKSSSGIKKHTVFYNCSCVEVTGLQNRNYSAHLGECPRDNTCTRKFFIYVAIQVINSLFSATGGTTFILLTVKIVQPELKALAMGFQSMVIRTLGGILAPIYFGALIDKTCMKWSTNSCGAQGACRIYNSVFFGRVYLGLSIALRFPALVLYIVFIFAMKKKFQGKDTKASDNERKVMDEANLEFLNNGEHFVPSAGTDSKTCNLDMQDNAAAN

OATP1A2 = biological target: T3, OATP1A2 (Homo sapiens, UniProt P46721); experiment: Drug uptake in X. laevis oocytes injected with SLCO1A2; conditions: for Drug uptake, OATP1A2: OATP1A2 cRNA injected oocytes; for Drug uptake, OATP1A2 / Drug uptake, Water: 1 µM (darunavir 3 µM), 18°C, 1hr, mean ± SD; for Drug uptake, Water: water injected control oocytes (Table 1); for Accumulation in SLCO1A2 cRNA injected oocytes compared to water injected control oocytes (in words): in the presence and in the absence of 2% HSA; for Ratio (fold increase in OATP1A2 cRNA injected oocytes compared to water injected oocytes): * = P < 0.05
T3 sequence (P46721 1-670): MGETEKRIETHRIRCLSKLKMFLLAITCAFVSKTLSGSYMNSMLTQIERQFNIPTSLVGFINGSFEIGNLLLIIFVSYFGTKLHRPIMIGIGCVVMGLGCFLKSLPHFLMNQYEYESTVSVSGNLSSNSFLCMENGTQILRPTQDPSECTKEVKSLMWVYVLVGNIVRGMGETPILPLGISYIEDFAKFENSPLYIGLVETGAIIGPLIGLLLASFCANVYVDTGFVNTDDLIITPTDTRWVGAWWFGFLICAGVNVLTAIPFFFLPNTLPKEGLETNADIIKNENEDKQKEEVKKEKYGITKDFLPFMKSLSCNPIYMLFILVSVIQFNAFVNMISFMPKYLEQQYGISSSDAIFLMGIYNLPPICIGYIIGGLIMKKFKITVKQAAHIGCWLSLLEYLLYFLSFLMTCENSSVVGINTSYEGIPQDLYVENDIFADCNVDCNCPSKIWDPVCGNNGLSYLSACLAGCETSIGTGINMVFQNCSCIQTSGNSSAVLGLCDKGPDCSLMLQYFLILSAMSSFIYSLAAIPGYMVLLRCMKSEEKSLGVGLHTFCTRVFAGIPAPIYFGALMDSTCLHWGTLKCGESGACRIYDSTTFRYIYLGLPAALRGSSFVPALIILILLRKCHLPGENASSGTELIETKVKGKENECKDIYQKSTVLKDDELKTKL

SMILES	Drug uptake, OATP1B1 (OATP1B1; with 2% human serum albumin) [pmol/oocyte]	Drug uptake, OATP1B1 (OATP1B1; without human serum albumin) [pmol/oocyte]	Drug uptake, Water (OATP1B1; with 2% human serum albumin) [pmol/oocyte]	Drug uptake, Water (OATP1B1; without human serum albumin) [pmol/oocyte]	Drug uptake, OATP1B3 (OATP1B3) [pmol/oocyte]	Drug uptake, Water (OATP1B3) [pmol/oocyte]	Drug uptake, OATP1A2 (OATP1A2; with 2% human serum albumin) [pmol/oocyte]	Drug uptake, OATP1A2 (OATP1A2; without human serum albumin) [pmol/oocyte]	Drug uptake, Water (OATP1A2; with 2% human serum albumin) [pmol/oocyte]	Drug uptake, Water (OATP1A2; without human serum albumin) [pmol/oocyte]	Accumulation in SLCO1B1 cRNA injected oocytes compared to water injected control oocytes (in words) (OATP1B1)	Ratio (fold increase in OATP1B1 cRNA injected oocytes compared to water injected oocytes) (OATP1B1; with 2% human serum albumin)	Ratio (fold increase in OATP1B1 cRNA injected oocytes compared to water injected oocytes) (OATP1B1; without human serum albumin)	Accumulation in SLCO1B3 cRNA injected oocytes compared to water injected control (in words) (OATP1B3)	Ratio (fold increase in OATP1B3 cRNA injected oocytes compared to water injected oocytes) (OATP1B3)	Accumulation in SLCO1A2 cRNA injected oocytes compared to water injected control oocytes (in words) (OATP1A2)	Ratio (fold increase in OATP1A2 cRNA injected oocytes compared to water injected oocytes) (OATP1A2; with 2% human serum albumin)	Ratio (fold increase in OATP1A2 cRNA injected oocytes compared to water injected oocytes) (OATP1A2; without human serum albumin)
CC(C)CN(C[C@@H](O)[C@H](Cc1ccccc1)NC(=O)O[C@H]1CO[C@H]2OCC[C@H]21)S(=O)(=O)c1ccc(N)cc1 [Darunavir, darunavir]	2.14 ± 0.82	4.13 ± 0.40	0.72 ± 0.18	2.12 ± 0.55	5.41	3.29	2.56 ± 0.78	4.32 ± 0.75	0.96 ± 0.37	2.18 ± 0.40	–	–	–	–	–	–	–	–
O=C1Nc2ccc(Cl)cc2[C@@](C#CC2CC2)(C(F)(F)F)O1 [Efavirenz, efavirenz]	1.51 ± 0.12	16.0 ± 4.17	1.46 ± 0.21	15.9 ± 1.70	18.21 ± 6.21	16.56 ± 6.84	1.63 ± 0.24	10.3 ± 2.90	1.47 ± 0.28	12.6 ± 2.49	No significant increase	1.03	1.00	No significant increase	1.10	No significant increase	1.11	0.81
Cc1ccnc2c1NC(=O)c1cccnc1N2C1CC1 [Nevirapine, nevirapine]	2.01 ± 0.40	2.26 ± 0.20	1.80 ± 0.46	2.14 ± 0.22	3.12 ± 0.47	2.98 ± 0.59	2.17 ± 0.26	2.92 ± 0.59	2.23 ± 0.93	2.65 ± 0.54	No significant increase	1.12	1.06	No significant increase	1.05	No significant increase	0.97	1.10
C[C@]12CC[C@@H]3c4ccc(OS(=O)(=O)O)cc4CC[C@H]3[C@@H]1CCC2=O [estrone-3-sulphate]	0.15 ± 0.03	0.51 ± 0.17	0.08 ± 0.03	0.16 ± 0.04	0.50 ± 0.20	0.21 ± 0.01	0.35 ± 0.15	2.02 ± 0.52	0.10 ± 0.03	0.19 ± 0.05	significant increase in accumulation	1.90 *	3.21 *	trend towards increased accumulation	–	significant increase in accumulation	3.55 *	10.9 *
